In patent US9486440B2, “Uses of indole-ketones or indolidones as neuro-protective drugs” (UNIVERSITY OF MACAU, priority 2011, dated 2016):
“Also recorded” adds a separate entry of the source.

Legend:
[1] = system: intersegmental-vessel (ISV) formation; test: Intersegmental-vessel formation in Tg(fli-1:EGFP) zebrafish; format: in vivo; details: 1 dpf embryos treated 48 hours; SU4312 3-30 μM, PTK787/ZK222584 0.3-3 μM, VRI 0.1-0.3 μM, SU5416 0.3-1 μM
Method: (§1) Wild-type zebrafish (AB strain) and Tg (fli-1:EGFP) transgenic zebrafish were maintained as described in the Zebrafish Handbook (Westerfield, 1993). Zebrafish embryos were generated by natural pair-wise mating (3-12 months old) and raised at 28.5° C. in embryo medium (13.7 mM NaCl, 540 μM KCl, pH 7.4, 25 μM Na2HPO4, 44 μM KH2PO4, 300 μM CaCl2, 100 μM MgSO4, 420 μM NaHCO3, pH 7.4). […] An equal concentration of DMSO in embryo medium was used as vehicle control in each experiment.
(§2) After drug treatment, zebrafish were removed from microplate and observed for gross morphological changes of blood vessel under a fluorescence microscope (Olympus am Motorized Inverted Microscope, Japan) equipped with a digital camera (DP controller, Soft Imaging System, Olympus). Images were analyzed with Axiovision 4.2 and Adobe Photoshop 7.0.
(§3) Wild-type zebrafish (AB strain) and Tg(fli-1:EGFP) transgenic zebrafish were maintained as described in the Zebrafish Handbook (Westerfield, 1993). Zebrafish embryos were generated by natural pair-wise mating (3-12 months old) and were raised at 28.5° C. in embryo medium (13.7 mM NaCl, 540 μM KCl, pH 7.4, 25 μM Na2HPO4, 44 μM KH2PO4, 300 μM CaCl2, 100 μM MgSO4, 420 μM NaHCO3, pH 7.4). […] Equal concentration of DMSO in embryo medium was used as vehicle control in each experiment.
as §2, with “from the” for “from”

[2] = system: DA neurons in the zebrafish brain; test: MPTP zebrafish, whole-mount immunostaining against tyrosine hydroxylase; format: in vivo; details: 200 μM MPTP, 2 days from 1 dpf; SU4312 3-30 μM, PTK787/ZK222584 0.3-3 μM, SU5416 0.1-1 μM, VRI 0.03-0.3 μM
Method: as §1

zebrafish = test: Toxicity to zebrafish; format: in vivo; details: SU5416 10 μM, VRI 3 μM, SU4312 up to 30 μM
Method: as §1, §3

VEGFR-2 = details: cited from earlier work
CGNs [3] = test: MPP+-induced neurotoxicity in CGNs, MTT and LDH assays; format: cell-based, rat; details: pre-treatment 2 hours, then 35 μM MPP+ for 24 hours
Method: (§4) All animal experiments were conducted according to the ethical guidelines of ICMS, Macau University and the Animal Care Facility, The Hong Kong Polytechnic University. Rat CGNs were prepared from 8-day-old Sprague-Dawley rats (The Animal Care Facility, The Hong Kong Polytechnic University) as described by Li et al., 2005. Briefly, neurons were seeded at a density of 2.7×10^5 cells/ml in basal modified Eagle's medium (Invitrogen) containing 10% fetal bovine serum, 25 mM KCl, 2 mM glutamine, and penicillin (100 units/ml)/streptomycin (100 μg/ml). Cytosine arabinoside (10 μM) was added to the culture medium 24 hour after plating to limit the growth of non-neuronal cells. With the use of this protocol, more than 95% of the cultured cells were granule neurons.
(§5) The percentage of surviving neurons in the presence of SU4312 and/or MPP^+ was estimated by determining the activity of mitochondrial dehydrogenases with 3(4,5-dimethylthiazol-2-yl)-2.5-diphenyltetrazolium bromide (MTT) assay (Li et al., 2007). The assay was performed according to the specifications of the manufacturer (MTT kit I; Roche Applied Science). Briefly, the neurons were cultured in 96-well plates, 10 μl of 5 mg/ml MTT labeling reagent was added to each well containing cells in 100 μl of medium, and the plates were incubated for 4 hours in a humidified incubator at 37° C. After the incubation, 100 μl of the solvating solution (0.01 N HCl in 10% SDS solution) was added to each well for 16-20 hours. Absorbance of the samples was measured at a wavelength of 570 nm with 655 nm as a reference wavelength. Unless otherwise indicated, the extent of MTT conversion in cells exposed to MPP^+ is expressed as a percentage of the control.
Cytotoxicity was determined by measuring the release of lactate dehydrogenase (LDH). Briefly, cells were precipitated by centrifugation at 500 g for 5 min at room temperature, 50 μl of the supernatants was transferred into new wells, and LDH was determined using the in vitro toxicology assay kit (Roche). The absorbance of the samples was measured at a wavelength of 490 nm with 655 nm as a reference wavelength.
as §4, with “Rat” for “All animal experiments were conducted according to the ethical guidelines of ICMS, Macau University and the Animal Care Facility, The Hong Kong Polytechnic University. Rat”, “hours” for “hour”
as §5, with “The” for “The percentage of surviving neurons in the presence of SU4312 and/or MPP^+ was estimated by determining the activity of mitochondrial dehydrogenases with 3(4,5-dimethylthiazol-2-yl)-2.5-diphenyltetrazolium bromide (MTT) assay (Li et al., 2007). The”, “incubated at 37° C.” for “incubated”, “incubator.” for “incubator at 37° C.”, “The absorbance” for “Absorbance”

zebrafish larvae = test: Locomotion behavioral test of zebrafish larvae; format: in vivo; details: for MPTP-induced deficit of swimming behavior (total distance travelled): 200 μM MPTP 2 days, then 10 μM MPTP plus drug 3 days, L-deprenyl 20 μM, L-dopa 150 μM
Method: as §1
Thus the MPTP exposure needs to last 5 day from 1 dpf. […] Thus subsequent locomotion behavioral studies were done with 200 μM MPTP for treatment for 2 days at 1 dpf then replacing insult with 10 μM MPTP for incubation for another 3 days.
(§6) After drug treatment, zebrafish larvae at 6 dpf were transferred into 96-well plates (1 fish/well and 12 larvae/group). Fishes responded with excessive stress reaction (such as rapid and disorganized swimming or immobility for 2 min) due to the handling and monitoring of the behavior were discarded. The experiments were performed in a calm enclosed area. The larvae were allowed to habituate to the new environment for 30 min prior to experiments. Behavior was monitored by an automated video tracking system (Viewpoint, ZebraLab, LifeSciences). The 96-well plates and camera were housed inside a Zebrabox and the swimming pattern of each fish was recorded for 10 min and repeated 3 times, once every other 10 min. The total distance moved was defined as the distance (in cm) that the fish had moved during one session (10 min).
Normally as late as 3 dpf, zebrafish larvae show very little spontaneous swimming, but by 5 dpf they spontaneously swim longer distances and independently search for food. The MPTP exposure therefore needs to last 5 days from 1 dpf. […] Thus subsequent locomotion behavioral studies were performed with 200 μM MPTP for 2-day treatment at 1 dpf then replacing with media containing 10 μM MPTP for another 3-day incubation.
as §6, with “The larvae were discarded due to” for “Fishes responded with”, “reaction to the handling and monitoring of behavior” for “reaction”, “min).” for “min) due to the handling and monitoring of the behavior were discarded.”, “sealed” for “enclosed”, “min. Swimming behavior” for “min prior to experiments. Behavior”, “for” for “repeated”

CGNs [4] = test: Low potassium-induced cell death in CGNs, MTT assay; format: cell-based; details: 5 mM KCl BME medium, 24 hours; sunitinib 0.1-2 μM
Method: Cell viability was measured by MTT assay at 24 hours after low potassium challenge. […] After 24 hours of low potassium challenge, CGNs were assayed with an FDA/PI double staining. […] After 24 hours of low potassium challenge, CGNs were assayed with Hoechst staining. The number of apoptotic nuclei with condensed chromatin were counted from representative Hoechst staining photomicrographs and represented as a percentage of the total number of nuclei counted. […] Intracellular NO level was measured using DAF-FM diacetate as a probe at 4 hour after low potassium challenge. Data, expressed as percentage of control (CGNs were cultured in high potassium medium), were the mean±SEM of three separate experiments; *p<0.05 and **p<0.01 versus low potassium group in (A) and (D) or versus control in (C); ^##p<0.01 versus low potassium group in (C) (Turkey's test).
It was previously reported that low potassium could induce typical apoptosis in cerebellar granule neurons (CGNs) (Fu et al., 2008). […] Cell viability was measured with an MTT assay 24 hours after the low potassium treatment.

iNOS = iNOS (Homo sapiens, UniProt P35228); details: cited from earlier work
nNOS = nNOS (Homo sapiens, UniProt P29475); details: cited from earlier work

Row | Compound | IC50 (VEGFR-2) | MPP+-induced cell death (cell viability, MTT and LDH assays) (CGNs [3]) | MPTP-induced deficit of swimming behavior (total distance travelled) (zebrafish larvae) | further results
1 | O=C1Nc2ccc(Br)cc2/C1=C/c1cc2c([nH]1)CCCC2 [VRI] | 70000 nM | at 1 and 3 μM failed to block neuronal loss in vitro | but not VRI ameliorated the MPTP-induced deficit of swimming behavior | inhibition of intersegmental-vessel (ISV) formation [1]: inhibited the formation of intersegmental-vessels; MPTP-induced loss of DA neurons / decrease of TH+ region area [2]: could not prevent MPTP-induced decrease in TH^+ region area; toxicity to zebrafish (zebrafish): showed toxicity to zebrafish; swimming behavior of normal zebrafish larvae, drug alone (zebrafish larvae; zebrafish, in vivo): Neither SU5416 nor VRI treatment alone notably altered the swimming behavior
2 | CC(=N)NCc1cccc(CN)c1 [1400W] | – | failed to block neuronal death; also recorded: did not show protection | – | –
3 | CNC(=N)NCCC[C@H](N)C(=O)O [L-NMMA] | – | – | – | low potassium-induced cell death (MTT) (CGNs [4]): at 10-20 μM prevented low potassium-induced neuronal death in CGNs
4 | CCSC(=N)N [EPTU, 2-ethyl-2-thiopseudourea] | – | prevented MPP^+-induced neuronal death in CGNs | – | IC50 (iNOS): 17 nM; IC50 (nNOS): 36 nM
5 | CN(C)c1ccc(/C=C2/C(=O)Nc3ccccc32)cc1 [trans-SU4312] | 5200 nM | – | – | –
6 | CN(C)c1ccc(/C=C2\C(=O)Nc3ccccc32)cc1 [cis-SU4312] | 800 nM | – | – | –
7 | N[C@@H](Cc1ccc(O)c(O)c1)C(=O)O [levodopa] | – | – | rescued | –
8 | C#CCN(C)[C@H](C)Cc1ccccc1 [L-deprenyl] | – | – | rescued | –
